Test results from EP0462621A2, “Use of particular compounds for manufacture of pharmaceutical formulations for treatment against various parasites, mycoplasmas, other indications and other infections” (Prendergast, Patrick Thomas, priority 1990, dated 1991).
Like-named read-outs stand apart in the source and are kept apart here.

What was measured:
[1] = tested on: HIV-1; assay: Experiment la(b): H9 cells, HIV-1, antibody assay; assay type: cell-based; conditions: Human immunodeficiency virus 1
Description: Fresh macrophage cultures were obtained by incubation of mononuclear cells obtained from a leukopak directly in the wells of a microtiter plate having 6 wells per row. After removal of non-adherent cells, each row of the adherent macrophages was infected with 10-fold serial dilutions of HIV-I, with the use of polybrene to enhance uptake of the virus. After one to two hours, the virus inoculum was removed and replaced with fresh normal growth medium. The fresh medium for each row contained a particular concentration of AZT, dideoxy cytidine (ddC), or compound la, as indicated by the left-hand column of Table la(a). The first row of wells acted as a control, and to it was added fresh medium containing none of the three drugs. Medium levels were maintained for two to four weeks to allow replication of the virus to take place, with at least one complete fluid change to remove residual virus inoculum. The contents of each well were then tested for the level of HIV p24 antigen present using a commercially available antigen capture kit employing a radio-immunoassay which can detect as little as 10'^9gm of p24 present in a sample. The above procedure was done in duplicate runs.
A procedure similar to that followed in Experiment la(a) was followed using infected H9 cells, H9 cells being a permanent human T-cell line.
A procedure similar to that followed in Experiment la(a) was followed using infected H9 cells, being a permanent human T-cell line.

[2] = Stability of IPA on storage; assay type: physicochemical
Description: Compounds of Formula la (IPA) have especially low toxicity for pediatrics, and acceptable toxicity of adult humans, although it is somewhat higher than for pediatrics. IPA can be stored dry almost indefinitely if protected from light and stored at -75 °C. IPA is photosensitive and deteriorates at room temperature, whether in a solid form or in aqueous or ethanolic solutions. It was found in experiments that the breakdown rate of IPA is approximately 3% per month in a dark container at room temperature.
Two lots of IPA (Sample 1 and Sample 2) were tested.
Infrared spectra of IPA, taken from time to time, as described below, were used to monitor changes which may have occurred in the IPA over time. The compound was generally stored at -10° C. FT-IR data of fresh IPA are listed in the first column of Table la(m). A second FT-IR spectrum of the same compound, after storage at -10 C for 110 days, was taken and the data are listed in the second column of Table la(m). The melting point of the compound was taken at the same time. The original melting point was 128-130 C, and the second melting point, 110 days later, was 129-132 C.
The observed melting points compare favorably with literature melting points ranging from 126° C to 138° C.

[3] = tested on: Human peripheral blood mononuclear cells; assay: Experiment 1a(d): human cell viability, trypan blue counts; assay type: cell-based; conditions: 18 hours; for Cells/ml (x10^5) / Viability (%): 37° C
Description: Human peripheral blood mononuclear cells were incubated for 18 hours in the presence of various concentrations of IPA and azidothymidine (AZT) at 37° C after which time cell viability was determined by visual counts of cells in the presence of trypan blue. Two controls were run, one with each series of experiments.

## CC(C)=CCNc1ncnc2c1ncn2[C@@H]1O[C@H](CO)[C@@H](O)[C@H]1O [IPA, N^6-(Δ^2-isopentenyl) adenosine]
[1]; H9, HIV-1, as read from Figure 15, read-out: IC50
  IC50: 2 µM
[1]; H9, HIV-1, as read from Figure 15, read-out: IC90
  IC90: 3 µM
[1]; H9 Cells, from Figures 16 and 17, read-out: IC50 - The concentration of IPA which inhibits the replication of HIV-1 by 50%
  IC50: 6 µM
[1]; H9 Cells, from Figures 16 and 17, read-out: IC90 - The concentration of IPA which inhibits the replication of HIV-1 by 90%
  IC90: 10 µM
[2]; Sample 1, tests over four months
  change in the compound on storage: no change in the compound
[2]; dark container at room temperature
  breakdown rate: approximately 3 % per month
[2]; storage at -10 C for 110 days
  change in the FT-IR spectrum on storage: little change in the FT-IR spectrum
[3]; 0.1 µM
  Cells/ml (x10^5): 2.4 Cells/ml (x10^5)
  Viability (%): 86%
[3]; 0.3 µM
  Cells/ml (x10^5): 1.8 Cells/ml (x10^5)
  Viability (%): 82%
[3]; 1 µM
  Cells/ml (x10^5): 2.8 Cells/ml (x10^5)
  Viability (%): 100%
[3]; 3 µM
  Cells/ml (x10^5): 2.6 Cells/ml (x10^5)
  Viability (%): 87%
[3]; 10 µM
  Cells/ml (x10^5): 3.0 Cells/ml (x10^5)
  Viability (%): 94%
[3]; 30 µM
  Cells/ml (x10^5): 3.8 Cells/ml (x10^5)
  Viability (%): 95%
[3]; 100 µM
  Cells/ml (x10^5): 3.8 Cells/ml (x10^5)
  Viability (%): 90%
[3]; 300 µM
  Cells/ml (x10^5): 2.2 Cells/ml (x10^5)
  Viability (%): 79%
[3]; 1000 µM
  Cells/ml (x10^5): 2.8 Cells/ml (x10^5)
  Viability (%): 82%
[3]; 3000 µM
  Cells/ml (x10^5): 2.2 Cells/ml (x10^5)
  Viability (%): 92%
[3]; 6mM
  cell viability: slight reduction
[3]; 6000 µM
  Cells/ml (x10^5): 2.4 Cells/ml (x10^5)
  Viability (%): 75%
[3]; concentrations of from 0.1 µM to 3 u.M
  toxic effect (cell viability): no toxic effect
